One may read the IC50 as the midpoint of a concentration-inhibition curve.

The first data set has as its system Mycobacterium tuberculosis (strain H37Ra), cyt bd.
Assay: not given
The conditions noted are these: Mtb H37Ra; test compound 10 μM added after Compound X 0.9 μM.
For the compound `Cc1cc(F)cc(-c2ccc3nc(-c4[nH]c5ccccc5c(=O)c4C)nn3c2)c1` [Compound 86], the “(i) % OCR after cyt bd inhibitor” value is 32,57%.
`COc1cc(OC)cc(-c2ccc3nc(-c4[nH]c5ccccc5c(=O)c4C)nn3c2)c1` [Compound 87]: the “(i) % OCR after cyt bd inhibitor” value is reported as 33,23%.
Same read-out and setting: the result for `COc1ccc(-c2ccc3nc(-c4[nH]c5ccccc5c(=O)c4C)nn3c2)cc1` [Compound 90] reads 25,77%; that for `Cc1cc(-c2ccc3nc(-c4[nH]c5ccccc5c(=O)c4C)nn3c2)ccc1F` [Compound 110], 40,37%.
As for `Cc1ccc(-c2ccc3nc(-c4[nH]c5ccccc5c(=O)c4C)nn3c2)cc1F` [Compound 124], the “(i) % OCR after cyt bd inhibitor” value is recorded as 31,72%.
`COc1cc(F)cc(-c2ccc3nc(-c4[nH]c5ccccc5c(=O)c4C)nn3c2)c1` [Compound 125]: the “(i) % OCR after cyt bd inhibitor” value is on record as 45,66%.
On the same count and under the same terms, for `Cc1c(-c2nc3ccc(-c4cc(F)cc(C(F)(F)F)c4)cn3n2)[nH]c2ccccc2c1=O` [Compound 126] the value was 43,71%; for `Cc1c(-c2nc3ccc(-c4cccc(CC(F)(F)F)c4)cn3n2)[nH]c2ccccc2c1=O` [Compound 127], 49,62%.

Still in this data set, the particulars now being: Mtb H37Ra; test compound 10 μM after Compound X 0.9 μM, then CCCP 1 μM.
On to `Cc1cc(F)cc(-c2ccc3nc(-c4[nH]c5ccccc5c(=O)c4C)nn3c2)c1` [Compound 86], for which the “(ii) % OCR after cccp” value is on record as 39,44%.
`COc1cc(OC)cc(-c2ccc3nc(-c4[nH]c5ccccc5c(=O)c4C)nn3c2)c1` [Compound 87]: the “(ii) % OCR after cccp” value is 38,98%.
With `COc1ccc(-c2ccc3nc(-c4[nH]c5ccccc5c(=O)c4C)nn3c2)cc1` [Compound 90], the “(ii) % OCR after cccp” value is on record as 30,69%.
Still for that read-out and setting: for `Cc1cc(-c2ccc3nc(-c4[nH]c5ccccc5c(=O)c4C)nn3c2)ccc1F` [Compound 110] the value was 51,51%.
`Cc1ccc(-c2ccc3nc(-c4[nH]c5ccccc5c(=O)c4C)nn3c2)cc1F` [Compound 124]: the “(ii) % OCR after cccp” value is recorded as 37,02%.
Same read-out and setting: for `COc1cc(F)cc(-c2ccc3nc(-c4[nH]c5ccccc5c(=O)c4C)nn3c2)c1` [Compound 125] the value was 64,44%; for `Cc1c(-c2nc3ccc(-c4cc(F)cc(C(F)(F)F)c4)cn3n2)[nH]c2ccccc2c1=O` [Compound 126], 51,74%; for `Cc1c(-c2nc3ccc(-c4cccc(CC(F)(F)F)c4)cn3n2)[nH]c2ccccc2c1=O` [Compound 127], 65,3%.

For a further data set, the system named is Mycobacterium tuberculosis strain H37Rv ΔctaE-ΔqcrCAB. Briefly: microbe, parasite or virus in culture. The conditions noted are these: 240 h. It counts as cell-based.
`Cc1cc(F)cc(-c2ccc3nc(-c4[nH]c5ccccc5c(=O)c4C)nn3c2)c1` [Compound 86] showed an IC50 of 1.32 µM.
Same read-out and setting: for `COc1cc(OC)cc(-c2ccc3nc(-c4[nH]c5ccccc5c(=O)c4C)nn3c2)c1` [Compound 87] the value was 0.548 µM; for `COc1ccc(-c2ccc3nc(-c4[nH]c5ccccc5c(=O)c4C)nn3c2)cc1` [Compound 90], 1.49 µM; for `Cc1cc(-c2ccc3nc(-c4[nH]c5ccccc5c(=O)c4C)nn3c2)ccc1F` [Compound 110], 3.78 µM.
Same read-out and setting: for `Cc1ccc(-c2ccc3nc(-c4[nH]c5ccccc5c(=O)c4C)nn3c2)cc1F` [Compound 124] the value was 1.69 µM.
Compound `COc1cc(F)cc(-c2ccc3nc(-c4[nH]c5ccccc5c(=O)c4C)nn3c2)c1` [Compound 125] showed an IC50 of 0.664 µM.
The same measure, in the same setting: the result for `Cc1c(-c2nc3ccc(-c4cc(F)cc(C(F)(F)F)c4)cn3n2)[nH]c2ccccc2c1=O` [Compound 126] reads 10.8 µM; that for `Cc1c(-c2nc3ccc(-c4cccc(CC(F)(F)F)c4)cn3n2)[nH]c2ccccc2c1=O` [Compound 127], 3.23 µM.

Another data set concerns Mitochondrial toxicity (Glu/Gal). The data set can be described thus: Mitochondrial toxicity (Glu/Gal) assay. It counts as cell-based. Further details: key to Score: “negative” means that in the test, it was found to have low mitotoxicity (and hence no mitotoxicity alerts); “positive” means that there were some mitotoxicity alerts; “inconclusive” means that no accurate conclusion could be drawn. The following applies: galactose medium; read-out: IC50, gal.
In the case of `Cc1cc(F)cc(-c2ccc3nc(-c4[nH]c5ccccc5c(=O)c4C)nn3c2)c1` [Compound 86], the IC50 turned out to be 50 µM.
On the same count and under the same terms, the result for `COc1cc(OC)cc(-c2ccc3nc(-c4[nH]c5ccccc5c(=O)c4C)nn3c2)c1` [Compound 87] reads 5.16 µM; that for `COc1ccc(-c2ccc3nc(-c4[nH]c5ccccc5c(=O)c4C)nn3c2)cc1` [Compound 90], 200 µM.
Same read-out and setting: the result for `Cc1cc(-c2ccc3nc(-c4[nH]c5ccccc5c(=O)c4C)nn3c2)ccc1F` [Compound 110] reads 200 µM.
On the same count and under the same terms, for `Cc1ccc(-c2ccc3nc(-c4[nH]c5ccccc5c(=O)c4C)nn3c2)cc1F` [Compound 124] the value was 200 µM; for `COc1cc(F)cc(-c2ccc3nc(-c4[nH]c5ccccc5c(=O)c4C)nn3c2)c1` [Compound 125], 200 µM; for `Cc1c(-c2nc3ccc(-c4cc(F)cc(C(F)(F)F)c4)cn3n2)[nH]c2ccccc2c1=O` [Compound 126], 15.5 µM.
For the compound `Cc1c(-c2nc3ccc(-c4cccc(CC(F)(F)F)c4)cn3n2)[nH]c2ccccc2c1=O` [Compound 127], the IC50 came to 15.8 µM.

The data set is the same for the next values; noted with them: glucose medium; read-out: IC50, glu.
For `Cc1cc(F)cc(-c2ccc3nc(-c4[nH]c5ccccc5c(=O)c4C)nn3c2)c1` [Compound 86], the IC50 amounted to 50 µM.
Still for that read-out and setting: for `COc1cc(OC)cc(-c2ccc3nc(-c4[nH]c5ccccc5c(=O)c4C)nn3c2)c1` [Compound 87] the value was 6.2 µM; for `COc1ccc(-c2ccc3nc(-c4[nH]c5ccccc5c(=O)c4C)nn3c2)cc1` [Compound 90], 200 µM.
For the compound `Cc1cc(-c2ccc3nc(-c4[nH]c5ccccc5c(=O)c4C)nn3c2)ccc1F` [Compound 110], the IC50 came out at 200 µM.
The same measure, in the same setting: the result for `Cc1ccc(-c2ccc3nc(-c4[nH]c5ccccc5c(=O)c4C)nn3c2)cc1F` [Compound 124] reads 200 µM.
Still for that read-out and setting: the result for `COc1cc(F)cc(-c2ccc3nc(-c4[nH]c5ccccc5c(=O)c4C)nn3c2)c1` [Compound 125] reads 200 µM.
Still for that read-out and setting: for `Cc1c(-c2nc3ccc(-c4cc(F)cc(C(F)(F)F)c4)cn3n2)[nH]c2ccccc2c1=O` [Compound 126] the value was 25 µM; for `Cc1c(-c2nc3ccc(-c4cccc(CC(F)(F)F)c4)cn3n2)[nH]c2ccccc2c1=O` [Compound 127], 18.1 µM.

Still in this data set, the particulars now being: mitotoxicity score.
With `Cc1cc(F)cc(-c2ccc3nc(-c4[nH]c5ccccc5c(=O)c4C)nn3c2)c1` [Compound 86], the Score entry is given as “negative”.
In the case of `COc1cc(OC)cc(-c2ccc3nc(-c4[nH]c5ccccc5c(=O)c4C)nn3c2)c1` [Compound 87], the Score result is recorded as “inconclusive”.
The same measure, in the same setting: for `COc1ccc(-c2ccc3nc(-c4[nH]c5ccccc5c(=O)c4C)nn3c2)cc1` [Compound 90] the value was “negative”; for `Cc1cc(-c2ccc3nc(-c4[nH]c5ccccc5c(=O)c4C)nn3c2)ccc1F` [Compound 110], “negative”; for `Cc1ccc(-c2ccc3nc(-c4[nH]c5ccccc5c(=O)c4C)nn3c2)cc1F` [Compound 124], “negative”.
Still for that read-out and setting: for `COc1cc(F)cc(-c2ccc3nc(-c4[nH]c5ccccc5c(=O)c4C)nn3c2)c1` [Compound 125] the value was “negative”; for `Cc1c(-c2nc3ccc(-c4cc(F)cc(C(F)(F)F)c4)cn3n2)[nH]c2ccccc2c1=O` [Compound 126], “inconclusive”; for `Cc1c(-c2nc3ccc(-c4cccc(CC(F)(F)F)c4)cn3n2)[nH]c2ccccc2c1=O` [Compound 127], “negative”.

The data set is the same for the next values; noted with them: ratio glu/gal.
Turning to `Cc1cc(F)cc(-c2ccc3nc(-c4[nH]c5ccccc5c(=O)c4C)nn3c2)c1` [Compound 86], the “Δ IC50,glu/IC50,gal” value was “[x]0”.
Regarding `COc1cc(OC)cc(-c2ccc3nc(-c4[nH]c5ccccc5c(=O)c4C)nn3c2)c1` [Compound 87], the “Δ IC50,glu/IC50,gal” value is “[x]1.21”.
Regarding `COc1ccc(-c2ccc3nc(-c4[nH]c5ccccc5c(=O)c4C)nn3c2)cc1` [Compound 90], the “Δ IC50,glu/IC50,gal” value is “[x]0”.
On the same count and under the same terms, the result for `Cc1cc(-c2ccc3nc(-c4[nH]c5ccccc5c(=O)c4C)nn3c2)ccc1F` [Compound 110] reads “[x]0”; that for `Cc1ccc(-c2ccc3nc(-c4[nH]c5ccccc5c(=O)c4C)nn3c2)cc1F` [Compound 124], “[x]0”; that for `COc1cc(F)cc(-c2ccc3nc(-c4[nH]c5ccccc5c(=O)c4C)nn3c2)c1` [Compound 125], “[x]0”.
Regarding `Cc1c(-c2nc3ccc(-c4cc(F)cc(C(F)(F)F)c4)cn3n2)[nH]c2ccccc2c1=O` [Compound 126], the “Δ IC50,glu/IC50,gal” value was “[x]1.61”.
On the same count and under the same terms, the result for `Cc1c(-c2nc3ccc(-c4cccc(CC(F)(F)F)c4)cn3n2)[nH]c2ccccc2c1=O` [Compound 127] reads “[x]1.14”.

For the origin of these results see US20220389008A1, “4-QUINOLINONE ANTIBACTERIAL COMPOUNDS” (Janssen Sciences Ireland Unlimited Company, priority 2019, published 2022).
